Laboratory results from patent publication US5877030A, “Process for creating molecular diversity and novel protease inhibitors produced thereby” (priority 1995, dated 1999).

Assays:
[1] = rat model; Sobajima et al.; cited from earlier work
trypsin [2] = target: T1, trypsin (Bos taurus, UniProt P00760); assay: Trypsin inhibitor assay (trypsin-catalyzed hydrolysis of BAPA, absorbance at 410 nm), iterative screening of libraries; format: biochemical; conditions: comparison in words
T1 sequence (P00760 24-246): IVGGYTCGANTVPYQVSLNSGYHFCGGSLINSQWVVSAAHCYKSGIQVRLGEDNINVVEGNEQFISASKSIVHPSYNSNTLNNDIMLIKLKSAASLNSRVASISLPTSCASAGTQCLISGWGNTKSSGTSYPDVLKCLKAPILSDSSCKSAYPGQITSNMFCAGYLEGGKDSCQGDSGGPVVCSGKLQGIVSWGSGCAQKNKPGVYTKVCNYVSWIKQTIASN
Description: Each sub-library 1A-1F was tested for its ability to inhibit trypsin activity and the percent trypsin activity was correlated to the specific tool molecule group (see Table 3) that had been omitted during synthesis of the sub-library being assayed.

trypsin [3] = target: T1, trypsin; assay: Ki determination on trypsin (BAPA substrate, Michaelis-Menten / reciprocal plots); format: biochemical; conditions: for Ki: preliminary investigations
Description: The rate of the trypsin catalyzed reaction was determined by monitoring the increase in absorbance at 410 nm over time. In all measurements 5% (v/v) of dimethylsulfoxide (DMSO) was added to solubilize the libraries. For a typical assay, 50 μL of a library solution in DMSO and 10 μL of the trypsin stock solution (2.5 mg trypsin in 25 mL 0.001M HCl) were added to 5 mL of buffer (0.5M Tris-HCl, 0.16M CaCl21 pH 8.2) at 25° C. In regard to FIG. 19, the library solutions used for Charts A and B contained 2.5 mg in 50 μL DMSO; the library solution for Chart C contained 1 mg in 50 AL DMSO and the library solution for Chart D contained 0.5 mg in 50 μL DMSO.
After incubating for 10 min., the cloudy mixture was centrifuged, 0.4 mL of the clear supernatant was removed and diluted with 400 μL of buffer in a disposable 1.5 mL UV cuvette. Then, 50 μL of the BAPA (defined below) stock solution (50 mg BAPA in 5 mL DMSO) was added and the increase in absorbance at 410 nm was monitored. The trypsin activity was compared to a reference cuvette without added library material (B).
Methods for determining the Ki of an enzyme inhibitor would be known to those of ordinary skill in the art. (See also "Enzyme Kinetics & Behavior, Analysis of Rapid Equilibrium, and Steady State Enzyme Systems", ed. Segel, John Wiley & Sons, Inc., N.Y., N.Y. (1993), the contents of which are incorporated herein by reference.) A summary of the procedure used to obtain the Ki value for compound of Formula V.

thrombin = assay: Specificity against other proteases such as thrombin (initial experiments); format: biochemical

| Structure (SMILES) | treatment of severe acute pancreatitis [1] | activity relative to structural isomer Formula VI (trypsin [2]) | mode of inhibition of trypsin (trypsin [3]; 1/velocity vs. 1/(substrate concentration), five inhibitor concentrations 1×10^-6 M to 1×10^-4 M) | Ki (trypsin [3]; 'in the 10 μM range') | Ki (trypsin [3]; trypsin 7.4×10^-8 M, BAPA 2×10^-4 M to 7×10^-3 M, inhibitor 1×10^-6 M to 1×10^-4 M) | interference with other proteases, such as thrombin (thrombin) |
| --- | --- | --- | --- | --- | --- | --- |
| CS(=O)(=O)O.N=C(N)Nc1ccc(C(=O)Oc2ccc(SCCN3C(=O)CCC3=O)cc2)cc1 [4-(2-succinimidoethylthio)-phenyl 4-guanidinobenzoate methane sulfonate] | treating severe acute pancreatitis |  |  |  |  |  |
| CC[C@H](C)[C@H](NC(=O)c1cc(C(=O)N2CCC[C@H]2C(=O)O)cc2c1Oc1c(C(=O)N[C@@H](CCCCN)C(=O)OC)cc(C(=O)N[C@H](C(=O)O)C(C)C)cc1C2(C)C)C(=O)O [Formula V] |  | significantly more active than its structural isomer Formula VI | competitive inhibitor of trypsin | ~10 µM | ~9 µM | does not interfere with other proteases, such as thrombin |
